1 molecule from US20220062294A1, “PHARMACEUTICAL COMPOSITIONS OF TETRACYCLIC QUINOLONE ANALOGS AND THEIR SALTS” (Senhwa Biosciences, Inc., priority 2020, published 2022) can be followed below.

Test [1] deals with multiple cancer cell lines. As to the kind of experiment: Alamar Blue cell viability assay, overall statement on cancer cell lines. Type of test: cell-based. The protocol:
The effect of Compound I on cell viability was assessed by Alamar Blue assay of metabolic activity in various cancer cell lines.

The test system of the next test is normal cells. Briefly: Alamar Blue cell viability assay, overall statement on normal cells. Type of test: cell-based.
In a further test the test system is BRCA1/2 deficient cells. Briefly: Toxicity against BRCA1/2 deficient cell lines. The test is classed as cell-based. The settings on record: cell lines of different genetic backgrounds (colon, breast and ovary), mouse and human.
Test [2] deals with BRCA2 knockout tumor cells. Briefly: Xenograft model, BRCA2 knockout vs isogenic wild type tumor cells. The test is classed as in vivo. The settings on record: BRCA2 knockout tumor cells in a xenograft model, compared with isogenic wild type control cells.
In test [3] the test system is metastatic, recurrent, locally, advanced, or unresectable solid malignancy. Briefly: Pharmacokinetic and dose escalation study in patients with solid malignancy (Example 6). The test is classed as in vivo, human. The protocol: In pharmacokinetic and dose escalation studies, wadult patients with metastatic, recurrent, locally, advanced, or unresectable solid malignancy (patients with histologically and/or cytologically confirmed solid malignancy), who received prior anti-cancer treatment(s) until disease progression, at 10 different dose levels of Compound I were evaluated. Groups 1-7 were administered Compound I intravenously on days 1 and 8 of a 4-week cycle at 50, 100, 150, 200, 250, 325, and 475 mg/m^2 (solid Compound I reconstituted with 5% glucose in sterile water or similar biologically acceptable IV fluid), respectively. Groups 8-10 were administered intravenously on days 1, 8, and 15 of a 4-week cycle at 325, 475, and 650 mg/m^2, respectively. Each patient received each dose over 1 hour by IV infusion on days described above.
18 Patients were diagnosed with metastatic breast cancer.
12 Patients harbored BRCA1 or BRCA2 mutation. From the same group of 12 patients harboring BRCA1 or BRCA2 mutation, 8 patients had breast cancer (FIG. 2). Of the 8 patients, 6 patients harbored BRCA2 mutation and had breast cancer (FIG. 3). In FIGS. 1-3, each bar represents an individual in a treatment Group as indicated by the Group number corresponding to the treatment Groups.

With `Cc1cnc(CNC(=O)c2c(=O)c3ccc(N4CCCN(C)CC4)nc3n3c2sc2ccccc23)cn1` [Compound I, 2-(4-Methyl-[1,4]diazepan-1-yl)-5-oxo-5H-7-thia-1,11b-diaza-benzo[c]fluorene-6-carboxylic acid (5-methyl-pyrazin-2-ylmethyl)-amide], the antiproliferative activity result in test [1] is recorded as “antiproliferation activity”. For the same molecule, in the test with normal cells, the “activity in normal cells compared with cancer cell lines” value was “significantly less active”. The “toxicity against BRCA1/2 deficient cells” value in the test on BRCA1/2 deficient cells is recorded as “specific toxicity”. In test [2], the “therapeutic index of activity” value is “wide therapeutic index”. Also, the “response to Compound I treatment” value in test [3] (one patient of Group 10 (650 mg/m^2 IV, days 1, 8, 15 of 4-week cycle) with PALB2 mutation and BRCA2 mutation) is “partial response (PR)”; in test [3] (patients with BRCA2 mutation, dose greater than or equal to 150 mg/m^2, IV), “tumor shrinkage”.
